From publication PMC3218208 (Nature chemical biology, 2011)

Biological target: Enzyme I (EI, PtsI) (Escherichia coli, UniProt P08839)
Test: […] pyruvate/PEP isotope exchange assay with LC-MS/MS on purified enzyme
Assay type: biochemical

Ki: 1300 ± 100 µM
Structure (SMILES): O=C(O)CCC(=O)C(=O)O [αKG, α-ketoglutarate]
